Tests used:
[1] = tested on: FGFR1-amplified lung cancer cell lines; test: GI50 screening of FGFR1-amplified lung cancer cell lines against FGFR inhibitors (6 resistant lines); assay type: cell-based; details: 6 of 8 FGFR1-amplified lung cancer cell lines, read-out: half-growth-inhibitory concentration, or GI50
Description: (§1) Bars are indicated by number (1) (GI50>1 μM) or number (2) (GI50>1 μM) b) Average copy number of 6 cell lines not sensitive upon FGFR inhibition (marked by number (1)) and 2 cell lines which are sensitive upon FGFR inhibition (marked by number (2)). Copy number was extracted from genomic sequencing or whole exome sequencing data and plotted to chromosome 8 (hg19) with ROBOCOP. Location of NSD3 and FGFR1 with grey-backed surface c) Average tumor growth reduction of 8 patient derived xenograft tumor models treated with BG.J398 vs. vehicle. All models were confirmed to be FGFR1 amplified by FGFR1 FISH. Each bar represents an experiment of at least six mice and 12 tumors. Bars are marked by number (1) (tumor reduction of <30%) or by number (2) (tumor reduction of >30%). d) Average copy number of 5 patient derived xenograft tumor models not benefitting from FGFR inhibition (marked by number (1)) and 3 patient derived xenograft tumor (PDX) models which benefit from FGFR inhibition (marked by number (2)). […]
(§2) To gain a deeper understanding of 8p11-8p12-amplified lung cancer tumors and to link specific patterns of the 8p12-8p11 amplicon structure with FGFR1 dependency, the inventors analyzed an independent cohort of 26 8p-amplified tumor specimens with known sensitivity to FGFR inhibition. […]

[2] = tested on: Ba/F3 cells expressing ΔEC-FGFR1; test: Screening of Ba/F3 cells expressing ΔEC-FGFR1 with FGFR inhibitors (cellular ATP content after 96 hours); assay type: cell-based, murine; details: IL3 depleted conditions
Excerpt: Located genes in this region (middle, bottom; positive strand, negative strand), break coverage (top), location of tail-to-tail breaks (arrows and black dashed lines) are shown. Normal exon structure of NSD3 and FGFR1 with the genomic breaks are indicated by an asterisk independent of the chromosomal position shown above (bottom). b) Resulting rearrangement of the t-to-t break (dashed lines, top) and spanning reads from whole transcriptome sequencing data (bottom) is shown. c) PCR from corresponding cDNA with two different primer pairs, spanning the t-to-t break and FGFR1 (left) and matched normal cDNA (right) d) Hybrid-capture-based genomic sequencing (468×depth) copy number plot zoomed to the location of FGFR1 (middle). Tumor sample is from a patient with unknown response upon FGFR inhibition. Normal exon structure of FGFR1 (bottom), location of a tail-to-tail break (arrows), and break coverage (top) is shown. e) The resulting rearrangement of the t-to-t break is shown (dashed lines). f) Break spanning reads detected by ARCHER sequencing technique are indicated. g) Immunoblotting of transformed Baf3 cells (Baf3 FGFR1 AEC and Baf3 EML4-ALK as control) vs. non-transformed Baf3 cells transduced with empty Vector (Baf3 e.V.), FGFR1 alpha (Baf3 FGFR1aplpa), and FGFR1 beta (Baf3 FGFR1beta). […]

[3] = tested on: FGFR1 amplified patient derived xenograft (PDX) models of squamous cell lung cancer; test: Patient derived xenograft tumor models treated with BG.J398 vs. vehicle; assay type: in vivo, mice; details: 20 mg/kg daily oral
Description: Bars are indicated by number (1) (GI50>1 μM) or number (2) (GI50>1 μM) b) Average copy number of 6 cell lines not sensitive upon FGFR inhibition (marked by number (1)) and 2 cell lines which are sensitive upon FGFR inhibition (marked by number (2)). Copy number was extracted from genomic sequencing or whole exome sequencing data and plotted to chromosome 8 (hg19) with ROBOCOP. Location of NSD3 and FGFR1 with grey-backed surface c) Average tumor growth reduction of 8 patient derived xenograft tumor models treated with BG.J398 vs. vehicle. All models were confirmed to be FGFR1 amplified by FGFR1 FISH. Each bar represents an experiment of at least six mice and 12 tumors. Bars are marked by number (1) (tumor reduction of <30%) or by number (2) (tumor reduction of >30%). d) Average copy number of 5 patient derived xenograft tumor models not benefitting from FGFR inhibition (marked by number (1)) and 3 patient derived xenograft tumor (PDX) models which benefit from FGFR inhibition (marked by number (2)). Copy number was extracted from genomic sequencing data and plotted to chromosome 8 (hg19) with ROBOCOP. e) Tumor volume change of patients with squamous cell lung cancer harboring FGFR1 amplification and treated with BG.J398. Tumor volume change was measured by RECIST criteria. […] TUM003 and TUM007 died during treatment and no sign of response. * labeled sample was an of label FGFR inhibitor treated patient where no RECIST data were available. f) Average copy number of 5 patients with progressive disease (marked by number (2)) and 4 patients with durable, partial response upon FGFR inhibition (marked by number (1), one patient was treated with an off label used FGFR inhibitor (GW786034 HCl). […]
Furthermore, the inventors analysed patient-derived 8p12-8p11-amplified squamous cell lung cancer xenotransplant models. In total, the inventors performed FGFR1 fluorescence in situ hybridization (FISH) on 35 patient derived xenograft (PDX) models from EpoBerlin, 39 PDX models from Crown Bioscience Inc., 3 samples of Moro Massimo as previously described. […]

H1581 = test: GI50 screening of FGFR1-amplified lung cancer cell lines against FGFR inhibitors; assay type: cell-based; details: Homo sapiens, NCI-H1581; sensitive cell line H1581; read-out: half-growth-inhibitory concentration, or GI50
Description: as §1, §2

DMS114 = test: as above; assay type: cell-based; details: Homo sapiens, DMS-114; sensitive cell line DMS114; read-out: half-growth-inhibitory concentration, or GI50
Description: as §1, §2

[4] = tested on: FGFR1-amplified squamous cell lung cancer; test: Patients with FGFR1-amplified squamous cell lung cancer treated with an FGFR inhibitor (phase I clinical trial / off-label use); assay type: in vivo, human; details: 8 patients treated with BG.J398, phase I clinical trial
Description: Bars are indicated by number (1) (GI50>1 μM) or number (2) (GI50>1 μM) b) Average copy number of 6 cell lines not sensitive upon FGFR inhibition (marked by number (1)) and 2 cell lines which are sensitive upon FGFR inhibition (marked by number (2)). Copy number was extracted from genomic sequencing or whole exome sequencing data and plotted to chromosome 8 (hg19) with ROBOCOP. Location of NSD3 and FGFR1 with grey-backed surface c) Average tumor growth reduction of 8 patient derived xenograft tumor models treated with BG.J398 vs. vehicle. All models were confirmed to be FGFR1 amplified by FGFR1 FISH. Each bar represents an experiment of at least six mice and 12 tumors. Bars are marked by number (1) (tumor reduction of <30%) or by number (2) (tumor reduction of >30%). d) Average copy number of 5 patient derived xenograft tumor models not benefitting from FGFR inhibition (marked by number (1)) and 3 patient derived xenograft tumor (PDX) models which benefit from FGFR inhibition (marked by number (2)). Copy number was extracted from genomic sequencing data and plotted to chromosome 8 (hg19) with ROBOCOP. e) Tumor volume change of patients with squamous cell lung cancer harboring FGFR1 amplification and treated with BG.J398. […]
Finally, the inventors analyzed biopsy specimens obtained from 10 patients with FGFR1-amplified squamous cell lung cancer. […]

Row | GI50 [1] [nM] | GI50 (H1581) [nM] | GI50 (DMS114) [nM] | Molecule | sensitivity to FGFR inhibition [2] | Average tumor growth reduction vs. vehicle ([3]; 3 PDX models which benefit, bars (2)) [%] | Average tumor growth reduction vs. vehicle ([3]; 5 PDX models not benefitting, bars (1)) [%] | PDX models sensitive to FGFR inhibition ([3]; 8 FGFR1 amplified PDX models) | patients with durable, partial response (tumor volume change by RECIST) [4] [patients] | patients with progressive disease (tumor volume change by RECIST) [4] [patients]
1 | > 1000 | < 1000 | < 1000 | CCN1CCN(c2ccc(Nc3cc(N(C)C(=O)Nc4c(Cl)c(OC)cc(OC)c4Cl)ncn3)cc2)CC1 [BG.J398] | highly sensitive | > 30 | < 30 | Three of the 8 patient derived xenotransplant (PDX) models were sensitive | 3 | 5
2 |  |  |  | AZD4547 | highly sensitive |  |  |  |  | 

Source: US20240327928A1, “METHOD FOR IDENTIFYING RESPONSIVENESS TO FIBROBLAST GROWTH FACTOR RECEPTOR 1 INHIBITOR THERAPY” (UNIVERSITÄT ZU KÖLN, priority 2021, published 2024)
